Experimental findings from patent US9642369B2 (dated 2017) are described below.

What is called melting point is the temperature of the solid-liquid transition. In turn, `CCOP(=O)(CCC[N+](C)(C)CCCNS(=O)(=O)c1cccc2c(N(C)C)cccc12)OCC.[Br-]` showed a melting point of 34 to 36 °C.

With `CN(C)CCCNS(=O)(=O)c1cccc2c(N(C)C)cccc12` (hydrate or solvate), the melting point fell in the range of 122 to 124 °C.
